Test results as given in publication PMC3795843 (Journal of molecular biology, 2013).

Legend:
Sub2p = target: T1, Sub2p (Saccharomyces cerevisiae, UniProt Q07478); assay: inhibition of RNA duplex unwinding, native PAGE; assay type: biochemical; conditions: 0.5 mM nucleotide, 0.5 mM ATP, 10 mM Tris pH 7.0, 50 mM KCl, 30 °C
T1 sequence (Q07478 2-446): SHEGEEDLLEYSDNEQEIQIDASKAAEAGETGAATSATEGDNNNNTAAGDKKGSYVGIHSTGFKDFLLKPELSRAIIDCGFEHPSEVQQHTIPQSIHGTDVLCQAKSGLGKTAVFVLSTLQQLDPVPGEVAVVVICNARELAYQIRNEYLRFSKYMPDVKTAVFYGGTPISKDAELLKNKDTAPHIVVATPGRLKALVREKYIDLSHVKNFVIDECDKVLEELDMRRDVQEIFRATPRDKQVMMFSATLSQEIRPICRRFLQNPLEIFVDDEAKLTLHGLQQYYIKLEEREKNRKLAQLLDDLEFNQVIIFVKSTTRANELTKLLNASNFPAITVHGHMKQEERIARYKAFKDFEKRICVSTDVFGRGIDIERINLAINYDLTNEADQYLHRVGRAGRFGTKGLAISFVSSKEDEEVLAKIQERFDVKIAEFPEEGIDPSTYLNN

Dbp5p = target: T2, Dbp5p (Saccharomyces cerevisiae, UniProt P20449); assay: inhibition of RNA duplex unwinding, native PAGE; assay type: biochemical; conditions: 0.5 mM nucleotide, 0.5 mM ATP, 40 mM Hepes pH 7.5, 30 °C
T2 sequence (P20449 1-482): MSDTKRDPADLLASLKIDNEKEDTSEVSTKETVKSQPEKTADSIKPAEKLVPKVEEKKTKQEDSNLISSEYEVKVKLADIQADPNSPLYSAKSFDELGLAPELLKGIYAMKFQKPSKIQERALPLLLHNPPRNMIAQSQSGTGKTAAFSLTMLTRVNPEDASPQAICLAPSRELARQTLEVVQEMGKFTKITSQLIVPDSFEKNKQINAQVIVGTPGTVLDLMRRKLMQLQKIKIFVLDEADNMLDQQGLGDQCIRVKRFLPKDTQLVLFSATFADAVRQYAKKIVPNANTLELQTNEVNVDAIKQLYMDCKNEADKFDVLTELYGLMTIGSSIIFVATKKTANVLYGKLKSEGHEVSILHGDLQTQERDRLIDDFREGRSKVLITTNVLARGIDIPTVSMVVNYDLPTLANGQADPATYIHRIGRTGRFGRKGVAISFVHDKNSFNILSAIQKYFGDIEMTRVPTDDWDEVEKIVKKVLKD

Ded1p = Ded1p (Saccharomyces cerevisiae, UniProt P06634); assay: fluorescence competition with mantADP; assay type: binding; conditions: no RNA; pH 8.0, 50 mM NaCl, 0.5 mM excess Mg2+, 19 °C
Chain of Ded1p (P06634 2-604): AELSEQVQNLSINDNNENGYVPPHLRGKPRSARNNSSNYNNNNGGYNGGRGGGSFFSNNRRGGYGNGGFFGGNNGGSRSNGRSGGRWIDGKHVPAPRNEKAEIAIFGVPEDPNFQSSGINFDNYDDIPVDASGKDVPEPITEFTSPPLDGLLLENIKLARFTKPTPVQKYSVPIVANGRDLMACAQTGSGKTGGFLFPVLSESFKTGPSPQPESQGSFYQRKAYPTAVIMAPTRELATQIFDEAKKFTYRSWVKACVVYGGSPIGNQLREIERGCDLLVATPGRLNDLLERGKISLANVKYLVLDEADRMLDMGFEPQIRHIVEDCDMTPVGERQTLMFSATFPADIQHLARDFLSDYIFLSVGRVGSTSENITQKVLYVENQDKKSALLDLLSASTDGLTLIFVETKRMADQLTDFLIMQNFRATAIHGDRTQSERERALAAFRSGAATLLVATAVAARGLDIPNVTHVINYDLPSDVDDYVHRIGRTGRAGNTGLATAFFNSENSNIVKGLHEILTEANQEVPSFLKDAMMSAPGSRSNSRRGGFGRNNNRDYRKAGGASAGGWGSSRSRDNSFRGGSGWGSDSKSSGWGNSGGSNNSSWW

`Nc1ncnc2c1ncn2[C@@H]1O[C@H](COP(=O)(O)OP(=O)(O)O)[C@@H](O)[C@H]1O` [ADP] was tested, and the kunw (Sub2p) was “Sub2p and Dbp5p showed only significant inhibition by ADP” and the kunw (Dbp5p) was “Sub2p and Dbp5p showed only significant inhibition by ADP”.
For `Nc1ncnc2c1ncn2[C@@H]1O[C@H](COP(=O)(O)OP(=O)(O)OP(=O)(O)O)[C@@H](O)[C@H]1O` [ATP], the K1/2 (Ded1p) was “Binding of ATP (red), ADP (blue), and AMP (green) to Ded1p in the absence of RNA”.
